Measurements as given in PMC9312958, “A Novel and Selective Dopamine Transporter Inhibitor, (S)-MK-26, Promotes Hippocampal Synaptic Plasticity and Restores Effort-Related Motivational Dysfunctions” (Biomolecules, 2022).

Columns and labels:
aged rats = experiment: Hole-board test, spatial reference memory; format: in vivo, rat
Source text: In order to examine the effect of (S)-MK-26 on hippocampus-dependent spatial reference memory, we used the standardized hole-board test (animal experiments conducted under BMBWF-66.009/235/V/3b/2018 regulations) following published procedures with minor modifications. In brief, food restriction and controlled body weight loss with it (until steadily reaching 85% of the average body weight sustained during ad libitum feeding) was initially imposed for this experimental study as cognitive/behavioral incentive. A black plastic hole-board maze (1 m^2 base) with 16 symmetrically distributed holes located at the floor (7 cm in diameter and depth) and walls enriched with spatial cues was used (See Figure 4). Accessory distal cues were also visible in the walls of the experimental room. Dustless precision food pellets (45 mg, Bioserv®, Flemington, NJ, USA) were placed as motivational baits in four randomly designated holes, unchanged throughout the test. Several inaccessible pellets were also placed all across the entire area immediately below all the holes of the board maze in order to induce a uniform distribution of the food smell and thus preventing the acute orientating response of the sense of smell from prevailing over the evocation of spatial memories associated with the location of accessible food. […] The behavioral experiments were conducted in a noise-isolated room; all sessions were monitored by a distal overhead conventional digital camera and behavioral data digitalized using the ANY-Maze video tracking system (Stoelting Europe, 8-Terenure Place, Terenure, Dublin, D6W Y006, Ireland). Spatial memory performance was assessed from the number of errors made by the animal, that is, the number of times the animals visit unbaited holes (reference memory). […] Thus, from these measurements, an RMI value of “1” would constitute quantifiable indicator of optimal reference memory, with a performance without empty-hole visiting mistakes. […]

[1] = system: adult male Sprague Dawley rats; experiment: FR5/chow feeding choice task; format: in vivo, rat
Experimental: Pharmacological agents: (S)-MK-26 was obtained from the Lubec Laboratory (University of Vienna, Austria) and dissolved in dimethyl sulfoxide (DMSO) (10%), Tween 80 (15%), and 0.9% saline (75%). The DMSO/Tween 80/saline mixture was administered as the vehicle control. The dose range was selected as 3.75–45.0 mg/kg based on its DAT affinity and pilot studies. It was administered 30 min before testing. TBZ (9,10-dimethoxy3-(2-methylpropyl)-1,3,4,6,7, 11b hexahydrobenzo[a]quinolizin2-one) was obtained from Tocris Bioscience (Ellisville, MO) and was dissolved in DMSO (20%) and 0.9% saline (80%) and was titrated with 1.0 N HCl until the drug was dissolved at a pH of 4.0–4.5. The DMSO/saline solution with equal amounts of HCl was administered as the vehicle control. The selected dose was 1.0mg/kg based on the previous research from our laboratory. It was administered 120 min prior to testing.
FR5/chow feeding choice task: A total of 8 adult male Sprague Dawley rats (Envigo Sprague Dawley, Indianapolis, IN, USA; weights 275–299 g upon arrival) were pair-housed in a colony maintained at 23 °C, with a 12 h light/dark cycle (lights on 07:00). Rats were food deprived to 85% of their free-feeding body weight with modest growth throughout the experiment and water was available ad libitum in their home cages. All the animal protocols were approved by the University of Connecticut Institutional Animal Care and Use Committee, and the experiments were completed according to National Institutes of Health guidelines.
Behavioral sessions were conducted in operant chambers (28 × 23 × 23 cm^3; Med Associates, Fairfax, VT, USA) with 30 min sessions 5 days/week. Rats were initially trained to lever press on magazine training for 3 days, followed by an FR1 schedule for 3 days (high-carbohydrate 45-mg pellets, Bio-Serv, Frenchtown, NJ, USA), and then moved to the FR5 schedule. After 5 weeks of training on the FR5 schedule, lab chow was introduced as the concurrently available choice food (Laboratory Diet, 5P00 Prolab RMH 3000, Purina Mills, St. Louis, MO, USA; typically 15–20 g). At the end of each session, rats were immediately removed from the chambers. The number of lever pressing was recorded and the amount of consumed chow was calculated by weighing the remaining food, including spillage. Rats were trained on the FR5/chow feeding choice task for 5 weeks, after which drug testing began.
To test the effects of (S)-MK-26 on FR5/Chow feeding choice task, trained rats were administered either with TBZ (1.0 mg/kg) or vehicle 120 min before testing, and (S)-MK-26 also with doses of 15.0, 30.0, 45.0 mg/kg or vehicle 30 min before testing, via intraperitoneal (IP) injections on drug testing days. A repeated-measures design was utilized where each rat received each drug treatment in a randomly varied order, once per week. The following five treatment combinations were given: TBZ vehicle + (S)-MK-26 vehicle; 1.0 mg/kg TBZ + (S)-MK-26 vehicle; 1.0 mg/kg TBZ + 15.0 mg/kg (S)-MK-26; 1.0 mg/kg TBZ + 30.0 mg/kg (S)-MK-26; 1.0 mg/kg TBZ + 45.0 mg/kg (S)-MK-26. Next, to see if the effects of lower doses, the following four treatment combinations were given in a repeated measure design: TBZ vehicle + (S)-MK-26 vehicle; 1.0 mg/kg TBZ + (S)-MK-26 vehicle; 1.0 mg/kg TBZ + 3.75 mg/kg (S)-MK-26; 1.0 mg/kg TBZ + 7.5 mg/kg (S)-MK-26.

[2] = 15.0, 30.0 and 45.0 mg/kg i.p. coadministered with 1.0 mg/kg TBZ

## [O-][S@@+](Cc1cncs1)C(c1cccc(Cl)c1)c1cccc(Cl)c1 [(S)-MK-26, (S)-5-(((B(3-chlorophenyl)methyl)sulphinyl)methyl)thiazole]
Aged rats; 10 mg/kg i.p. daily, vs Kolliphor
  spatial reference memory (reference memory index): slight and transitory—yet statistically significant—enhancement of spatial reference memory
Aged rats; 10 mg/kg i.p., p = 0.0053
  exploratory activity (distance travelled) during H3 habituation session: induced an increase in ecology-like exploratory activity
Aged rats; 10 mg/kg i.p., vs Kolliphor
  number of hole dips: No differences
[1]; [2]
  effect on TBZ-induced change in chow intake: significantly attenuated the effects of TBZ
  effect on TBZ-induced change in lever pressing: significantly attenuated the effects of TBZ
[1]; comparison with earlier studies
  potency in effort-based choice tests compared to other modafinil analogs: lower potency than (S,S)-CE-158
[1]; low-dose progression 3.75 and 7.5 mg/kg i.p. with 1.0 mg/kg TBZ
  reversal of TBZ effects on lever pressing and chow intake: failed to reverse the effects of TBZ
